Here are results for five compounds from patent US10370409B2, “Synthesis of libraries of peptide tertiary amides” (The Scripps Research Institute, priority 2011, dated 2019).

Assay [1] relates to scFv PX4-4. Briefly: Fluorescence polarization / anisotropy titration of fluorescein-labelled compounds with PX4-4. As to conditions: for Kd: FP titration with PX4-4. Format: binding, human. Here is the method:
Hits identification: All 17 hits were cleaved using CNBr and then characterized by MALDI mass spectrum. All 17 structures were resynthesized and examined against PX4-4 with FP assay. Only one hit was identified as binder with a Kd <10 μM.
(§1) The affinity of compound 13 for PX4-4 was determined by fluorescence anisotropy.
96 beads were chosen randomly from the library and placed individually into the wells of a 96-well filter plate. Each well was treated with fluorescein azide and a copper catalyst to attach fluorescein to the alkyne handle and then the compounds were cleaved from beads. The beads were filtered out and the soluble compounds were used for the fluorescence polarization (FP) assay. All 27 possible structures were found in this collection of molecules by tandem MS sequencing. Semi-quantitative binding constants for the PX4-4 antibody all 27 of the compounds were determined by titrating the compounds with the protein in the microwell format and monitoring the increase in FP. […] Most of the curves approached saturation, allowing for an accurate determination of the KD. In contrast, compound A41, corresponding to peptoid 14), was not saturated in the tested protein concentration range (100 nM to 400 μM) (FIG. 9B).

In assay [2] the test system is whole human IgG. Briefly: Fluorescence polarization selectivity test with a mixture of human IgG. Format: binding. As to conditions: FP experiment repeated using a mixture of human IgG; FIG. 9B. The method, then:
as §1
To address the selectivity of compounds A14 (N,R,S configuration), A7 (N,S,S), A68 (R,S,R), A41(N,N,N) and A24 (R,R,R) for PX4-4, the FP experiment was repeated using a mixture of human IgG as we did previously for compound 13. […] This implies that greater conformational flexibility is associated with binding promiscuity.

Setting [3] is: semi-quantitative, compounds cleaved from single beads, 96-well microwell format, read-out: Kd-96.
Where [4] appears, read: re-synthesized and purified compounds, read-out: Kd-re.

Each structure is given as a SMILES string. Like-named read-outs stand apart in the source and are kept apart here. Numbered stars: 1 amine (or outer) side, 2 acyl side, 3 side chain; on linkers, the order of the positions; unused ones are H or OH. Square brackets hold non-standard residues; d marks the D form. Peptide text beside a SMILES is read from it. X1 = COc1ccc(CN([C@@H](C)C(=O)[*:2])[*:1])cc1OC; Gly(Nα-4-F-phenethyl) = O=C(O)CNCCc1ccc(F)cc1; X3 = COc1ccc(CN(CC(=O)[*:2])[*:1])cc1OC; X2 = C[C@@H](C(=O)[*:2])N(CCCCN)[*:1]; Gly(N-propargyl) = C#CCNCC(=O)O; NFurfurylGly = O=C(O)CNCc1ccco1; Nlys = NCCCCNCC(=O)O

In general, Kd refers to the equilibrium constant for the complex coming apart. Turning to `C#CCN(CC(=O)N(CCCCN)CC(=O)N(CC(N)=O)Cc1ccco1)C(=O)CN(CCCCN)C(=O)CN(CCc1ccc(F)cc1)C(=O)CN(CCCCN)C(=O)CNCc1ccc(OC)c(OC)c1` [A41] (H-[X3][Nlys][Gly(Nα-4-F-phenethyl)][Nlys][Gly(N-propargyl)][Nlys][NFurfurylGly]-NH2), the “saturation of FP binding curve with PX4-4” value in assay [1] (protein concentration range 100 nM to 400 μM, FIG. 9B) is on record as “not saturated”. For the same compound, in assay [1] (setting [3]), the Kd turned out to be 113 µM.
With `[2H]C([2H])([2H])[C@]([2H])(C(=O)N(CCc1ccc(F)cc1)CC(=O)N(CCCCN)CC(=O)N(CC#C)CC(=O)N(CCCCN)CC(=O)N(CC(N)=O)Cc1ccco1)N(CCCCN)C(=O)[C@H](C)NCc1ccc(OC)c(OC)c1` [A14], the “binding with whole human IgG” value in assay [2] was “no binding”. For the same compound, the Kd in assay [1] (setting [4]) is 19.1 µM; in assay [1] (setting [3]) it was 27.5 µM.
In the case of `[2H]C([2H])([2H])[C@@]([2H])(NCc1ccc(OC)c(OC)c1)C(=O)N(CCCCN)[C@@]([2H])(C(=O)N(CCc1ccc(F)cc1)[C@@]([2H])(C(=O)N(CCCCN)CC(=O)N(CC#C)CC(=O)N(CCCCN)CC(=O)N(CC(N)=O)Cc1ccco1)C([2H])([2H])[2H])C([2H])([2H])[2H]` [A24], the “binding with whole human IgG” value in assay [2] is on record as “no binding”. The Kd in assay [1] (setting [4]) is 233 µM; in assay [1] (setting [3]), 117 µM.
For `[2H]C([2H])([2H])[C@@]([2H])(NCc1ccc(OC)c(OC)c1)C(=O)N(CCCCN)[C@@H](C)C(=O)N(CCc1ccc(F)cc1)[C@@]([2H])(C(=O)N(CCCCN)CC(=O)N(CC#C)CC(=O)N(CCCCN)CC(=O)N(CC(N)=O)Cc1ccco1)C([2H])([2H])[2H]` [A68] the same measures were “no binding”, 65.2 µM and 43.2 µM.
The like results for `C#CCN(CC(=O)N(CCCCN)CC(=O)N(CC(N)=O)Cc1ccco1)C(=O)CN(CCCCN)C(=O)CN(CCc1ccc(F)cc1)C(=O)[C@H](C)N(CCCCN)C(=O)[C@H](C)NCc1ccc(OC)c(OC)c1` [A7] (H-[X1][X2][Gly(Nα-4-F-phenethyl)][Nlys][Gly(N-propargyl)][Nlys][NFurfurylGly]-NH2) were, in that order, “no binding”, 25.4 µM and 40.9 µM.
